Reference: patent EP2366394A1, “Characterization and validation of inhibitors and ligands of dipeptidyl aminopeptidase IV (DP IV)” (IMTM GmbH, priority 2010, dated 2011)
Where two headings read alike, the source gives them in different places.

Experiments:
T lymphocytes = assay: Inhibition of proliferation (DNA synthesis, tritium thymidine incorporation) of PHA-stimulated T lymphocytes; type: cell-based; details: Homo sapiens, T-lymphocyte, read-out: IC50(Tc) Measured DNA-Supp.
Procedure: Peripheral blood mononuclear cells (PBMC) from healthy human volunteers were freshly isolated by density gradient centrifugation. T lymphocytes (T cells, Tc) were isolated from PBMC fractions via nylon wool adherence. Cells were cultured in standard cell culture media and stimulated by addition of 1 µg/ml Phytohemagglutinine for 48 hours in 96 well flat-bottom microtitre plates. […] DNA synthesis of proliferating T cells was determined by incorporation of radio labelled tritium thymidine and subsequent radio detection. […] The IC50 value of proliferation suppression was assessed by graphical evaluation.

[1] = target: purified, recombinant human DPIV (Homo sapiens, UniProt P27487); assay: Inhibition of the enzymatic activity of DPIV, fluorogenic substrate (Ala-Pro)2-R110; type: biochemical; details: substrate 0.5 µM, pH 7.5; highest test concentration 25 µM; > 25: No inhibition
Sequence of purified, recombinant human DPIV (P27487 whole entry): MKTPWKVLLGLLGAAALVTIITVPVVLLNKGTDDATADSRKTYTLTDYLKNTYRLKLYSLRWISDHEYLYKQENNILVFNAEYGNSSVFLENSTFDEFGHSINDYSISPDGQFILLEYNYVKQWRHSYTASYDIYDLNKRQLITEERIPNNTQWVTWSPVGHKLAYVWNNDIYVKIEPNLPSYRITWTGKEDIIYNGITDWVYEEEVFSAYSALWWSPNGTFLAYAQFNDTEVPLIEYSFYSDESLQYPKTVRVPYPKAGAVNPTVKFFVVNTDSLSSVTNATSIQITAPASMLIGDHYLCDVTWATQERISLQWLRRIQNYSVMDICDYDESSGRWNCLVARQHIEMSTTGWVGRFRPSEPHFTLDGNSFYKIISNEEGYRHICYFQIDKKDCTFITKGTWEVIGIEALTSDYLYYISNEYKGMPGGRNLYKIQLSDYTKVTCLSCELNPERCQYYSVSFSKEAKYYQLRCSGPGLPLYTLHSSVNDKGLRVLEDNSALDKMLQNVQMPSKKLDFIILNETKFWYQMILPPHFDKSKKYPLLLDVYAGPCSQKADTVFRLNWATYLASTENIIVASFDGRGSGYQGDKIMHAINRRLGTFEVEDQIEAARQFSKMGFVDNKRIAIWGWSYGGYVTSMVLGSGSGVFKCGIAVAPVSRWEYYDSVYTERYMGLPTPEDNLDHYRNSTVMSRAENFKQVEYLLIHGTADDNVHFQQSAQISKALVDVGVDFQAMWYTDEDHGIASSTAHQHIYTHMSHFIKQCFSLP
Procedure: The assay was performed in 0.05 M TRIS/HCl buffer, pH 7.5, supplemented with 0.05 % Triton® (v/v), 0.05 % BSA (w/v), 2 mM MgCl2.
The enzymatic activity of DPIV was assessed by the hydrolysis of the fluorogenic substrate Bis-(L-Alanyl-Prolyl)-Rhodamin-110 (Bis-Trifluoroacetate; abbreviation: (Ala-Pro)2-R110). The final substrate concentration was 0.5 µM.
The assay was performed in white microtitre plates for fluorescence measurements. The test items, substrate and enzyme, were diluted in assay buffer. […] For the calculation of IC50 values, at least 16 log2 dilutions of each test item were analyzed. As controls, the DPIV activity in the absence of test items as well as the spontaneous hydrolysis of the substrate was determined.

DP8/9 = assay: Inhibition of the enzymatic activity of DPIV related enzymes DP8/9; type: biochemical; details: > 25: No inhibition
Excerpt: Measurement of the enzymatic activity of DPIV and related enzymes

[2] = suppression of DNA synthesis of T cells, 1 µg/ml Phytohemagglutinine, 48 hours, graphical evaluation

Row | SMILES | IC50 (T lymphocytes; 48 h) | IC50 (T lymphocytes; [2]) | IC50 [1] | IC50 (DP8/9)
1 | N[C@@H](CC(=O)N1CCn2c(nnc2C(F)(F)F)C1)Cc1cc(F)ccc1F [No. 1, (1R)-1-(2,5-Difluorobenzyl)-3-oxo-3-[3-(trifluoromethyl)-5,6-dihydro[1,2,4]triazolo[4,3-a]pyrazine-7(8H)-yl]propylamine] | 200 µM |  |  | 
2 | CC(C)C(Oc1ccc(CNC(=O)C2CCCN2C(=O)CC(N)Cc2cc(F)ccc2F)cc1)C(=O)O (stereo not shown) [No. 2, 2-[({[1-(3-Amino, 2-(2, 5)-difluorophenylbutanoyl)pyrrolidin-2-yl]carbonyl}amino)-p-phenoxy]-3-methyl butanoic acid] |  | 81 µM | 0.48 µM | > 25 µM
3 | CC[C@H](C)[C@H](N)C(=O)N1CCSC1 [No. 4, (1S,2S)-2-Methyl-1-(1,3-thiazolidine-3-ylcarbonyl) butyl amine] | 113 µM |  |  | 1.73 µM
4 | CC(C)(CNC(=O)CC(Cc1cc(F)ccc1F)NC(=O)OC(C)(C)C)CNC(=O)C(O)C(Cc1ccccc1)NC(=O)OC(C)(C)C (stereo not shown) [No. 6, 3-N-tert.-Butylcarbamato-5-phenyl-N-{3-[(3-amino-2-hydroxypropanoyl)-amino]-2,2-dimethylpropyl}-5-(2,5-difluorophenyl) pentane 3-amine] | 8 µM |  | > 25 µM | > 25 µM
5 | CCCCCC(=O)NC(CC(=O)NCC(C)(C)CNC(=O)C(O)C(Cc1ccccc1)NC(=O)CCCCC)Cc1cc(F)ccc1F (stereo not shown) [No. 7, 3-Amino-5-phenyl-N-{3-[(3-amino-1-oxohexyl-2-hydroxypropanoyl)amino-1-oxohexyl]-2,2-dimethylpropyl}-5-(2,5-difluorophenyl)pentane 3-N-tert.butyl carbamate] | 10 µM |  | > 25 µM | > 25 µM
6 | NC(CCCCNC(=O)c1ccc(S)nc1)C(=O)N1CCSC1 (stereo not shown) [No. 8, N-[5-Amino-6-oxo-6-(1,3-thiazolidine-3-yl)hexyl]-6-mercapto nicotinamide] | 90 µM |  | 0.09 µM | 0.001 µM
7 | NC(CC(=O)N1CCn2c(nnc2C(F)(F)F)C1)Cc1cc(F)c(F)cc1F (stereo not shown) [No. 10, 3-Oxo-1-(2,4,5-trifluorobenzyl)-3-[3-(trifluoromethyl)-5,6-dihydro-[1,2,4]triazolo[4,3-a]pyrazine-7(8H)-yl]propyl amine] |  | 148 µM |  | 15.3 µM
8 | NC(CC(=O)N1CCN(C(c2ccc(F)cc2)c2ccc(F)cc2)CC1)C(=O)N1Cc2ccccc2C1 (stereo not shown) [No. 13, 2-Amino-1-(1,3-dihydro-2H-isoindol-2-yl)-4-(4-bis(4-fluorophenyl)-methylpiperazine-1-yl) butane-1,4-dione] | 6 µM |  |  | 
9 | NC(CNC(=O)c1cccc(NC(=O)C(O)C(N)Cc2ccc(-c3cccnc3)cc2)c1)Cc1cc(F)ccc1F (stereo not shown) [No. 15, 3-[(3-Amino-2-4-(4-(3-pyridinyl)-phenyl) hydroxybu-tanoyl)-amino]-N-(2-amino-5-(2,4-difluorophenyl)pentyl) ben-zamide] |  | 24 µM |  | 8.5 µM
10 | Cc1[nH]c2ccccc2c1C(c1cc(Cl)ccc1O)N1CCOCC1 (stereo not shown) [No. 16, 4-Chloro-2-[(2-methyl-1H-indol-3-yl)(morpholin-4-yl)methyl]-benzenolate] |  | 3 µM | > 25 µM | 
